{"source": "patent US8372855B2", "about": "“Cyclohexyloxy-substituted heterocyclics, medicines containing these compounds and method for the production thereof” (Boehringer Ingelheim International GmbH, priority 2008, dated 2013)"}
{"molecular_target": "T1, human EGF-R (Homo sapiens, UniProt P00533)", "T1 construct": "expressed in transfected cells", "T1 sequence (P00533 25-1210)": "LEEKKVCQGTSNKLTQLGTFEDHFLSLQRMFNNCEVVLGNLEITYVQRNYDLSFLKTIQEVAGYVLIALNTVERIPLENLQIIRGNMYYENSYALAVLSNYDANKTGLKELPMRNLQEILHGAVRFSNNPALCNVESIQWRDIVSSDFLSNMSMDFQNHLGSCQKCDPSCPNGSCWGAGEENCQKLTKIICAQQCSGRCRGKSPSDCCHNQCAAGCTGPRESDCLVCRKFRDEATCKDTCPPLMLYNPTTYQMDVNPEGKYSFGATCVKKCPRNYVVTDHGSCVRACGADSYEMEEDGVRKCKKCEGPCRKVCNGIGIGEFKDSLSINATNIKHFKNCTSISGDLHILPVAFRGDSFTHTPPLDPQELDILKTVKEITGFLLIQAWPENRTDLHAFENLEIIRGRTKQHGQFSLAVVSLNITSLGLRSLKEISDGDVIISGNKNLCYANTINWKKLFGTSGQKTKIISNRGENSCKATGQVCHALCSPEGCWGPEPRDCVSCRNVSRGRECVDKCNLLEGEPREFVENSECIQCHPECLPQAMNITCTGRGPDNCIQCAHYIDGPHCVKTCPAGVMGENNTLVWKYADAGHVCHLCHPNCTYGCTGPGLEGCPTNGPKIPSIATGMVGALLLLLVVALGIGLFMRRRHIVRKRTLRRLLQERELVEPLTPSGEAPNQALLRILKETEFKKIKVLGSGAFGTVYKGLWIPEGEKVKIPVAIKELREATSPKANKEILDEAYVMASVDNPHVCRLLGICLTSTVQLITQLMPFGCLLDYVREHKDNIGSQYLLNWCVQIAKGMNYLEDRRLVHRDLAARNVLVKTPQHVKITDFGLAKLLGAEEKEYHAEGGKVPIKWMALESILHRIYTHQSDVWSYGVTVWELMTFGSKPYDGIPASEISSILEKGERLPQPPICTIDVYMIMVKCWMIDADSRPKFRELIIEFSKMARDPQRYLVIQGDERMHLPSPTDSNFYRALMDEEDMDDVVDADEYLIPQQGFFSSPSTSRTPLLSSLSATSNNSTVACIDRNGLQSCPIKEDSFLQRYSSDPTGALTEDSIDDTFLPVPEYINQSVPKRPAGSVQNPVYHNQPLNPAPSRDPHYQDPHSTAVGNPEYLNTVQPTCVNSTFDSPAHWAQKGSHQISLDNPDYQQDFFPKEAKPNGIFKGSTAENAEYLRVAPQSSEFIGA", "assay": "Inhibition of EGFR-dependent proliferation (EGF-stimulated murine haematopoietic cell line expressing human EGF-R, Cell Titer 96 AQueous assay)", "type": "cell-based", "conditions": "20 ng/ml human EGF, 48 hours at 37° C.", "experimental": "A murine haematopoietic cell line is genetically modified so as to express functional human EGF-R. The proliferation of this cell line can therefore be stimulated by EGF.\nThe test is carried out as follows:\nThe cells are cultivated in RPMI/1640 medium. The proliferation is stimulated with 20 ng/ml of human EGF (Promega). To investigate the inhibitory activity of the compounds according to the invention these compounds are dissolved in 100% dimethylsulphoxide (DMSO) and added to the cultures in various dilutions, the maximum DMSO concentration being 1%. The cultures are incubated for 48 hours at 37° C.\nIn order to determine the inhibitory activity of the compounds according to the invention the relative cell number is measured in O.D. units using the Cell Titer 96™ AQueous Non-Radioactive Cell Proliferation Assay (Promega). The relative cell number is calculated as a percentage of the control and the concentration of active substance which inhibits the proliferation of the cells by 50% (IC50) is derived therefrom.", "units": {"IC50": "nM"}}
{"compound": "COc1cc2ncnc(Nc3cccc(Cl)c3F)c2cc1O[C@H]1CC[C@@H](N2CCN(CC3CC3)C(=O)C2)CC1", "note": "[1(1), cis]", "IC50": 10.1}
{"compound": "COc1cc2ncnc(Nc3cccc(Cl)c3F)c2cc1O[C@H]1CC[C@H](N2CCN(CC3CC3)C(=O)C2)CC1", "note": "[1(1), trans]", "IC50": 1.7}
{"compound": "CCCCN1CCN([C@H]2CC[C@@H](Oc3cc4c(Nc5cccc(Cl)c5F)ncnc4cc3OC)CC2)CC1=O", "note": "[1(2), cis]", "IC50": 12.1}
{"compound": "CCCCN1CCN([C@H]2CC[C@H](Oc3cc4c(Nc5cccc(Cl)c5F)ncnc4cc3OC)CC2)CC1=O", "note": "[1(2), trans]", "IC50": 3.1}
{"compound": "COc1cc2ncnc(Nc3cccc(Cl)c3F)c2cc1O[C@H]1CC[C@@H](N2CCN(C3CCOCC3)C(=O)C2)CC1", "note": "[1(3), cis]", "IC50": 9.3}
{"compound": "COc1cc2ncnc(Nc3cccc(Cl)c3F)c2cc1O[C@H]1CC[C@H](N2CCN(C3CCOCC3)C(=O)C2)CC1", "note": "[1(3), trans]", "IC50": 1.6}
{"compound": "CCN1CCN([C@H]2CC[C@@H](Oc3cc4c(Nc5cccc(Cl)c5F)ncnc4cc3OC)CC2)CC1=O", "note": "[1, cis]", "IC50": 7.1}
{"compound": "CCN1CCN([C@H]2CC[C@H](Oc3cc4c(Nc5cccc(Cl)c5F)ncnc4cc3OC)CC2)CC1=O", "note": "[1, trans]", "IC50": 1.3}
